The values that follow come from ChEMBL document CHEMBL5154770, “Discovery of novel ataxia telangiectasia mutated (ATM) kinase modulators: Computational simulation, biological evaluation and cancer combinational chemotherapy study” (Eur J Med Chem, 2022).

Structures are written as SMILES. Activity calls are given as the source filed them. No cut-off for these calls is given here.

Data set [1] relates to MCF7. Nature of the data set: Antiproliferative activity against human MCF7 cells measured after 2 days by SRB assay. It counts as functional, cell-based. Particulars: MCF7, 48 h.
Data set [2] deals with SW480. Nature of the data set: Antiproliferative activity against human SW480 cells measured after 3 days by SRB assay. It counts as functional, cell-based. The note with it: SW480, 72 h.
The subject of the next data set is MDCK. Nature of the data set: Cytotoxicity against dog MDCK cells at 100 uM. The data set is classed as toxicity, cell-based, Canis lupus familiaris.
The next data set has as its system HEK293. As to the kind of experiment: Cytotoxicity against human HEK293 cells at 100 uM. The data set is classed as toxicity, cell-based. Particulars: hek293, 100 µM.
The nature of data set [3]: Toxicity in BALB/c nude mouse xenografted with human SW480 cells assessed as effect on body weight at 30 mg/kg, iv. The data set is classed as organism-based. Particulars: in vivo.
For data set [4], the target named is T1, Serine-protein kinase ATM (Homo sapiens, UniProt Q13315). As to the kind of experiment: Inhibition of ATM in human MCF7 cells assessed as increase in pKAP1 level at 12.5 to 18 uM measured by western blot analysis. The data set is classed as cell-based. Particulars: dose 12.5-18 µM.
T1 sequence (Q13315 whole entry): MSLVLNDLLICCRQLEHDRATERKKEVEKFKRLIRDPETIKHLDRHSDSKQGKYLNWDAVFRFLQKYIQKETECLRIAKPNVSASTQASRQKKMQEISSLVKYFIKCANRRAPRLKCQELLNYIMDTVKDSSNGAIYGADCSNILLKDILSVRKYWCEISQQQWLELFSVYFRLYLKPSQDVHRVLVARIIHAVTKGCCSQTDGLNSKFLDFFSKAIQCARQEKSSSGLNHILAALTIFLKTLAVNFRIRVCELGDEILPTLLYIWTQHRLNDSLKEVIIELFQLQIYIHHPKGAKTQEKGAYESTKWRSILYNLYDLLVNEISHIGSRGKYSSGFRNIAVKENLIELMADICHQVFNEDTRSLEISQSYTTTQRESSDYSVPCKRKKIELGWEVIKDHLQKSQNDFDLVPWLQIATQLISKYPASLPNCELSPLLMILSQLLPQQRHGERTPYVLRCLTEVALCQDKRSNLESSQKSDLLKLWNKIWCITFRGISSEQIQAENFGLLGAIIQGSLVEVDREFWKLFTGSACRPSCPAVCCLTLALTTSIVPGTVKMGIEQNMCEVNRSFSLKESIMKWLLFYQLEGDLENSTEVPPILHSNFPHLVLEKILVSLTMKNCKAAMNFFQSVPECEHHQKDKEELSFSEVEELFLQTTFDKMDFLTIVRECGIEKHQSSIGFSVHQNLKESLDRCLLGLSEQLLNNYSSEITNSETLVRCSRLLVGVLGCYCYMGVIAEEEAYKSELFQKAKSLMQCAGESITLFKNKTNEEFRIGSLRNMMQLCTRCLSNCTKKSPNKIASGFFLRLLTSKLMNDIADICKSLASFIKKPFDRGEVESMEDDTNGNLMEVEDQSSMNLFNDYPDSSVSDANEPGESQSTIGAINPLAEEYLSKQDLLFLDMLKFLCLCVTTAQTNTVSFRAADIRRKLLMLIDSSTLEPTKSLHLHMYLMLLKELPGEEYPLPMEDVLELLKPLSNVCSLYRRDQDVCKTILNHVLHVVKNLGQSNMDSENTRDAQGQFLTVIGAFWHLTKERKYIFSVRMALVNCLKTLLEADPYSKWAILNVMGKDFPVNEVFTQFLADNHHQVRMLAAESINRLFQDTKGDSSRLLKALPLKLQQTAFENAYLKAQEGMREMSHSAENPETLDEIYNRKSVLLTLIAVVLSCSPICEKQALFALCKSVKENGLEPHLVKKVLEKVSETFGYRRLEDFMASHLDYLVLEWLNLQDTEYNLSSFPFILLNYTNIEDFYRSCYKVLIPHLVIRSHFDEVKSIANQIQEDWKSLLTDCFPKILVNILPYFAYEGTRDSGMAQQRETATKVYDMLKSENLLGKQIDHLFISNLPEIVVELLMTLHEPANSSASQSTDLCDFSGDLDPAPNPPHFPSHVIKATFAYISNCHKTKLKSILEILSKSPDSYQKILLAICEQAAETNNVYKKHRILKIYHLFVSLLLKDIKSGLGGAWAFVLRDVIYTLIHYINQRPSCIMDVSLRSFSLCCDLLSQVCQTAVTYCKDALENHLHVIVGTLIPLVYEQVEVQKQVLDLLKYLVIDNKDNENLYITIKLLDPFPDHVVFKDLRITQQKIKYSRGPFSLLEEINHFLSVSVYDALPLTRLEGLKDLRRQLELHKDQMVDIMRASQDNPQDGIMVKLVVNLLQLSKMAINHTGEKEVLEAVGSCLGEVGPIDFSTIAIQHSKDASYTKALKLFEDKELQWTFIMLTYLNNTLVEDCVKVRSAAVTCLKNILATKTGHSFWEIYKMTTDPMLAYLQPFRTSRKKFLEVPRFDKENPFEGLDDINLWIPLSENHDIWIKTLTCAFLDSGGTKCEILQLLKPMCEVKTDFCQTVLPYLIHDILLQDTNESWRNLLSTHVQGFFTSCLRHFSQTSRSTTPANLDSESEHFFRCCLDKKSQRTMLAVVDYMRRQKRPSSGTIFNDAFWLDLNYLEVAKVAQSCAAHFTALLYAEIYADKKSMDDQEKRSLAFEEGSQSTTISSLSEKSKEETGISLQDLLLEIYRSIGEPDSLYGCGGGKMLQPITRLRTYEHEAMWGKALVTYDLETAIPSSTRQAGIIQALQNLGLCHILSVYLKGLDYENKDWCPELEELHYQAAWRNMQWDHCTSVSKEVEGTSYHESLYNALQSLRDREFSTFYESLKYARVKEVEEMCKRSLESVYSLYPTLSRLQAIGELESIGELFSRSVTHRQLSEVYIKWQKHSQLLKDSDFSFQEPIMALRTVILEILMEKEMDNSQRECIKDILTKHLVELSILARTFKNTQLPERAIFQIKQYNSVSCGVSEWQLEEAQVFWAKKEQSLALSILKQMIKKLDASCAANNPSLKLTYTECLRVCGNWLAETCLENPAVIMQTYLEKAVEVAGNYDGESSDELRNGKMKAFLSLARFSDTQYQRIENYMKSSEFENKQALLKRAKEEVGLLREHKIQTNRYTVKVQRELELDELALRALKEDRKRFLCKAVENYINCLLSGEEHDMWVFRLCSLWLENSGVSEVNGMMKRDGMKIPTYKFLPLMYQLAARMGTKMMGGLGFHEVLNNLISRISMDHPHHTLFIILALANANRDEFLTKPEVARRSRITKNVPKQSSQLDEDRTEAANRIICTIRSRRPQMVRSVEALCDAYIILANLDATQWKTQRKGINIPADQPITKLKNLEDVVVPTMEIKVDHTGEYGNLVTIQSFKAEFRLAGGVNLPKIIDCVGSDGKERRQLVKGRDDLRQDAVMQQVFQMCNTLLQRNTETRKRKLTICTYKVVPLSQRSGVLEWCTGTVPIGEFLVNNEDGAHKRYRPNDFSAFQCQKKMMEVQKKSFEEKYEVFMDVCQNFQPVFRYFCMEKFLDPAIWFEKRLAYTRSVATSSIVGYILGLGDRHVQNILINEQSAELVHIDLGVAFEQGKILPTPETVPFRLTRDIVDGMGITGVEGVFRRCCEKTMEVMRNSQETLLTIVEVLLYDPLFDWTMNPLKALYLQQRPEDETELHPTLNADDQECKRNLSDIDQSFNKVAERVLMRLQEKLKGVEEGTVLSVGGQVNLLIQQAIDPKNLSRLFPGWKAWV
The test system of data set [5] is SW480. Nature of the data set: Antiproliferative activity against human SW480 cells measured after 9 days by SRB assay. The data set is classed as functional, cell-based. The note with it: SW480, 216 h.
The target in data set [6] is T1, Serine-protein kinase ATM. Nature of the data set: Inhibition of ATM in human MCF7 cells assessed as decrease in pKAP-1 level measured by In-cell western assay. The data set is classed as cell-based.
The subject of data set [7] is MCF7. Nature of the data set: Antiproliferative activity against human MCF7 cells measured after 6 days by SRB assay. The data set is classed as functional, cell-based. Particulars: MCF7, 144 h.
In data set [8] the target is T1, Serine-protein kinase ATM. Nature of the data set: Inhibition of ATM in human MCF7 cells assessed as increase in pATM level at 12.5 to 18 uM measured by western blot analysis. It counts as cell-based. Particulars: dose 12.5-18 µM.
The target of data set [9] is T1, Serine-protein kinase ATM. As to the kind of experiment: Binding affinity towards ATM (unknown origin) assessed as increase in thermal stability of ATM at 30 uM measured by thermal shift assay.
Data set [10] relates to MCF7. Nature of the data set: Antiproliferative activity against human MCF7 cells assessed as growth inhibition at 100 uM measured after 2 days by SRB assay. It counts as functional. The note with it: MCF7, 48 h, time 2 day, read-out: GI.
Data set [11] relates to SW480. Nature of the data set: Antiproliferative activity against human SW480 cells assessed as growth inhibition at 100 uM measured after 3 days by SRB assay. The data set is classed as functional. The note with it: SW480, 72 h, time 3 day, read-out: GI.
Data set [12] addresses T1, Serine-protein kinase ATM. Nature of the data set: Activation of ATM in human MCF7 cells assessed as increase in pKAP1 level at 30 uM in presence of 25 uM etoposide measured by western blot analysis. The data set is classed as cell-based. Particulars: filed as activator.
Data set [13] addresses T1, Serine-protein kinase ATM. Nature of the data set: Activation of ATM in human MCF7 cells assessed as increase in pKAP-1 level at 0.001 to 100 uM measured by In-cell western assay. It counts as cell-based. The note with it: filed as activator, dose 0.001-100 µM.
Data set [14] deals with T1, Serine-protein kinase ATM. Nature of the data set: Activation of ATM in human MCF7 cells assessed as increase in pATM level at 30 uM in presence of 25 uM etoposide measured by western blot analysis. The data set is classed as cell-based. The note with it: filed as activator.
Data set [15] concerns the target T1, Serine-protein kinase ATM. Nature of the data set: Competitive inhibition of ATM (unknown origin) measured by ATP-competitive binding assay.

As to `CCN(CC)CCCC(C)Nc1ccnc2cc(Cl)ccc12` (stereo not drawn) [CHLOROQUINE], the IC50 was 13.2 µM in the data set on MCF7 [1] and 14.7 µM with SW480 [2].
Take `CN(C)CCCOc1ccc(-c2ccc3ncc4c(c3c2)n(C2CCOCC2)c(=O)n4C)cn1`: the figures for the IC50 in the data set with MCF7 [1] and with SW480 [2] were 0.6 µM and 1.1 µM, respectively. Further, the Activity result in the data set with MDCK and in the data set with HEK293 was “Non-Toxic” throughout.
With `OCCNCc1c(OCc2ccc(Cl)cc2Cl)ccc2ccccc12`, the Activity result (in [3]; in the data set on MDCK; in the data set with HEK293) was “Non-Toxic” each time. Further, the IC50 amounted to 6.3 µM with MCF7 [1]; 5.5 µM with SW480 [5]; 33.4 µM in [6]; 21.3 µM in the data set with MCF7 [7]; 4.9 µM in the data set on SW480 [2]. Moreover, the inhibition entry in data set [4] and in data set [8] was “Active” in each case. The outcome in data set [9] was Active.
Consider `COc1ccc(C(=O)NC(=S)Nc2cccc(-c3nc4ncccc4o3)c2)cc1Cl`, for which the inhibition of growth at 100 µM in the data set with MCF7 [10] and in the data set with SW480 [11] was below 20% each time. For the same compound, the IC50 in the data set with MCF7 [1] and with SW480 [2] was above 100 µM each time. Also, the Activity result in the data set with MDCK and in the data set with HEK293 was “Non-Toxic” each time. In addition, the result in data set [12], in data set [13], in data set [14] and in data set [9] (filed as activator) was Active.
Regarding `O=c1cc(-c2cccc3c2Sc2ccccc2S3)oc(N2CCOCC2)c1` [KU-55933], the IC50 with MCF7 [1] is 24.8 µM; in the data set with SW480 [2], 26.5 µM. For the same compound, the Activity result with MDCK and in the data set with HEK293 was “Non-Toxic” each time.
Turning to `CNC(=O)c1ccc(-c2cnc3cnc(-c4ccccc4)cn23)cc1`, the IC50 in [15] was determined as 0.31 µM.
Consider `C[C@@H]1CN(CC(=O)Nc2ccc3c(c2)Cc2cccc(-c4cc(=O)cc(N5CCOCC5)o4)c2S3)C[C@H](C)O1`, for which the IC50 is 11.9 µM in the data set with MCF7 [1], 3.3 µM in the data set on SW480 [5], 2.8 µM in the data set on MCF7 [7] and 13.3 µM in the data set on SW480 [2]. For the same compound, the Activity result with MDCK and in the data set on HEK293 was “Non-Toxic” throughout.
